The values that follow come from patent US5043166A, “Liposome/anthraquinone drug composition and method” (priority 1989, dated 1991).

Data set [1] is described as follows: single injection survival with graded doses of F-DXR and L-DXR. Particulars: mouse, in vivo, iv, 90 days. Also on record: species or system mice. The protocol:
L-DXR was prepared as in Example I, to final DXR concentrations of 1, 1.5, 2, and 2.5 mg/ml, with corresponding phospholipid concentrations of 16, 24, 32, and 40 μmole/ml, respectively, and cholesterol concentrations of 6.4, 9.6, 12.8, and 16 μmole/ml, respectively. Free DXR (F-DXR) was prepared in sterile, pyrogen-free physiologic saline solution to final concentrations of 1, 1.5, 2, and 2.5 mg/ml.
BALB/c male mice were treated intravenously with 4 different doses of F-DXR and L-DXR: 10, 15, 20, and 25 mg/kg, by administering about 1% total animal weight of the corresponding F-DXR or L-DXR formulation. […] No mortality was registered among animals treated with 15 and 10 mg/kg of L-DXR and 60% of the mice injected with 20 mg/kg survived throughout 90 days. F-DXR caused 100% of mortality in the groups injected with 25, 20, and 15 mg/kg and 20% mortality in the group receiving 10 mg/kg.

The conditions of data set [2]: cited from earlier work.

Consider `COc1cccc2c1C(=O)c1c(O)c3c(c(O)c1C2=O)C[C@@](O)(C(=O)CO)C[C@@H]3O[C@H]1C[C@H](N)[C@H](O)[C@H](C)O1` [DXR, doxorubicin], for which the mortality (in general, the share of the test organisms that died) at 2160 h stood at 20% in data set [1] (10 mg/kg i.v.), 100% in data set [1] (15 mg/kg i.v.), 100% in data set [1] (20 mg/kg i.v.) and 100% in data set [1] (25 mg/kg i.v.). Besides, the “cardiac toxicity on repeated administration” value in data set [2] (repeated administration) is “cumulative and irreversible cardiac damage”. In addition, the acute toxicity entry in data set [2] (soluble form) was “malaise, nausea, vomiting myelosuppression, and severe alopecia”.
